Laboratory results taken from PMC10648927, “Examining the activity of cefepime-taniborbactam against Burkholderia cepacia complex and Burkholderia gladioli isolated from cystic fibrosis patients in the United States” (Antimicrobial Agents and Chemotherapy, 2023).
Values after ≈ are worked out from the molar mass of the structure shown.

Tests used:
Set-up in all cases: agar dilution MIC, growth inhibition of clinical Burkholderia isolates
[1] = tested on: T1, B. multivorans AU29198; assay: microbe, parasite or virus in culture; conditions: Burkholderia multivorans, AU29198
T1 construct: AU29198
From the text: (§1) We evaluated the activity of cefepime-taniborbactam against a panel of 140 Bcc clinical isolates (i.e., species ambifaria, arboris, cenocepacia, cepacia, contaminans, diffusa, dolosa, multivorans, pseudomultivorans, pyrrocinia, seminalis, stabilis, ubonensis, and vietnamiensis) and 10 B. gladioli from the Burkholderia cepacia Research Laboratory and Repository (University of Michigan) ([22], [25], [31]) (Supplementary Material, Tables S1 and S2). K. pneumoniae ATCC 700603 carrying bla SHV-18 and K. pneumoniae ATCC BAA-1705 harboring bla KPC strains were used as controls for β-lactam and β-lactamase inhibitor integrity; all controls tested within the anticipated quality control ranges (Table S3). Minimum inhibitory concentration (MIC) results were interpreted using Clinical Laboratory Standards Institute (CLSI) breakpoints, where available ([32]). […] An alternative cefepime-taniborbactam provisional susceptible breakpoint of ≤16 µg/mL is supported by in vivo efficacy data from neutropenic murine infection models (thigh, complicated urinary tract, and lung) ([15] [–] [17]) and data from safety and pharmacokinetics studies in human volunteers ([33], [34]). The cefepime-taniborbactam antimicrobial activity was compared to cefepime, meropenem, meropenem-vaborbactam, and levofloxacin, to data published for first-line agents (e.g., ceftazidime and trimethoprim-sulfamethoxazole) and to those recommended by the CLSI for clinical testing (e.g., minocycline) against the Bcc and B. gladioli panel ([22], [32]). Of note, the MICs of all these agents were determined by the agar dilution method, which alongside broth microdilution, are recommended by the CLSI to assess the antimicrobial susceptibility of Bcc isolates ([32]).

[2] = tested on: T2, B. multivorans AU4507; assay: microbe, parasite or virus in culture; conditions: Burkholderia multivorans, AU4507
T2 construct: AU4507
From the text: as §1

[3] = tested on: T3, B. cenocepacia AU12659; assay: microbe, parasite or virus in culture; conditions: Burkholderia cenocepacia, AU12659
T3 construct: AU12659
From the text: as §1

[4] = tested on: T4, B. multivorans AU28442; assay: microbe, parasite or virus in culture; conditions: Burkholderia multivorans, AU28442
T4 construct: AU28442
From the text: as §1

[5] = tested on: T5, B. cenocepacia AU17796; assay: microbe, parasite or virus in culture; conditions: Burkholderia cenocepacia, AU17796
T5 construct: AU17796
From the text: as §1

[6] = tested on: T6, B. multivorans AU30441; assay: microbe, parasite or virus in culture; conditions: Burkholderia multivorans, AU30441
T6 construct: AU30441
From the text: as §1

[7] = tested on: T7, B. cenocepacia AU29265; assay: microbe, parasite or virus in culture; conditions: Burkholderia cenocepacia, AU29265
T7 construct: AU29265
From the text: as §1

[8] = tested on: T8, B. cenocepacia AU0583; assay: microbe, parasite or virus in culture; conditions: Burkholderia cenocepacia, AU0583
T8 construct: AU0583
From the text: as §1

[9] = tested on: T9, Burkholderia cepacia complex Bcc Indeterminate AU14915; assay: microbe, parasite or virus in culture; conditions: Burkholderia cepacia
T9 construct: AU14915
From the text: as §1

[10] = tested on: T10, B. cepacia AU13354; assay: microbe, parasite or virus in culture; conditions: Burkholderia cepacia, AU13354
T10 construct: AU13354
From the text: as §1

[11] = tested on: T11, B. cepacia AU29493; assay: microbe, parasite or virus in culture; conditions: Burkholderia cepacia, AU29493
T11 construct: AU29493
From the text: as §1

[12] = tested on: T12, B. cepacia AU1555; assay: microbe, parasite or virus in culture; conditions: Burkholderia cepacia, AU1555
T12 construct: AU1555
From the text: as §1

[13] = tested on: T13, B. multivorans AU13919; assay: microbe, parasite or virus in culture; conditions: Burkholderia multivorans, AU13919
T13 construct: AU13919
From the text: as §1

[14] = tested on: T14, B. ambifaria AU11161; assay: microbe, parasite or virus in culture; conditions: Burkholderia ambifaria, AU11161
T14 construct: AU11161
From the text: as §1

[15] = tested on: T15, B. multivorans AU21015; assay: microbe, parasite or virus in culture; conditions: Burkholderia multivorans, AU21015
T15 construct: AU21015
From the text: as §1

[16] = tested on: T16, B. gladioli AU21101; assay: organism not typed
T16 construct: AU21101
From the text: as §1

[17] = tested on: T17, Burkholderia cepacia complex Bcc Indeterminate AU19821; assay: microbe, parasite or virus in culture; conditions: Burkholderia cepacia
T17 construct: AU19821
From the text: as §1

[18] = tested on: T18, B. cepacia AU15249; assay: microbe, parasite or virus in culture; conditions: Burkholderia cepacia, AU15249
T18 construct: AU15249
From the text: as §1

[19] = tested on: T19, B. diffusa AU19637; assay: organism not typed
T19 construct: AU19637
From the text: as §1

[20] = tested on: T20, Burkholderia cepacia complex Bcc Indeterminate AU18117; assay: microbe, parasite or virus in culture; conditions: Burkholderia cepacia
T20 construct: AU18117
From the text: as §1

[21] = tested on: T21, B. cenocepacia AU14093; assay: microbe, parasite or virus in culture; conditions: Burkholderia cenocepacia, AU14093
T21 construct: AU14093
From the text: as §1

[22] = tested on: T22, B. multivorans AU24277; assay: microbe, parasite or virus in culture; conditions: Burkholderia multivorans, AU24277
T22 construct: AU24277
From the text: as §1

Work on `CO/N=C(\C(=O)N[C@@H]1C(=O)N2C(C(=O)[O-])=C(C[N+]3(C)CCCC3)CS[C@H]12)c1csc(N)n1` [cefepime] yielded an MIC [1] of over 32 µg/mL, an MIC [2] of 8 µg/mL (≈ 16.6 µM) and an MIC [3] of 16 µg/mL (≈ 33.3 µM). The MIC [4] was over 32 µg/mL, the MIC [5] was 16 µg/mL (≈ 33.3 µM) and the MIC [6] was 2 µg/mL (≈ 4.16 µM). For the same compound, the MIC [7] was 16 µg/mL (≈ 33.3 µM), the MIC [8] was 32 µg/mL (≈ 66.6 µM) and the MIC [9] was over 32 µg/mL. The MIC [10] was over 32 µg/mL, the MIC [11] was over 32 µg/mL and the MIC [12] was over 32 µg/mL. It also gave an MIC [13] of 8 µg/mL (≈ 16.6 µM), an MIC [14] of over 32 µg/mL and an MIC [15] of over 32 µg/mL. The MIC [16] was 16 µg/mL (≈ 33.3 µM), the MIC [17] was over 32 µg/mL and the MIC [18] was 32 µg/mL (≈ 66.6 µM). For the same compound, the MIC [19] was 32 µg/mL (≈ 66.6 µM), the MIC [20] was over 32 µg/mL and the MIC [21] was over 32 µg/mL. It also gave an MIC [22] of over 32 µg/mL.
For `C[C@@H](O)[C@H]1C(=O)N2C(C(=O)O)=C(S[C@@H]3CN[C@H](C(=O)N(C)C)C3)[C@H](C)[C@H]12` [meropenem], the MIC [1] was 16 µg/mL (≈ 41.7 µM), the MIC [2] was 8 µg/mL (≈ 20.9 µM) and the MIC [3] was 4 µg/mL (≈ 10.4 µM). For the same compound, the MIC [4] was over 32 µg/mL, the MIC [5] was 4 µg/mL (≈ 10.4 µM) and the MIC [6] was 8 µg/mL (≈ 20.9 µM). It also gave an MIC [7] of 2 µg/mL (≈ 5.22 µM), an MIC [8] of 4 µg/mL (≈ 10.4 µM) and an MIC [9] of 16 µg/mL (≈ 41.7 µM). The MIC [10] was 8 µg/mL (≈ 20.9 µM), the MIC [11] was 8 µg/mL (≈ 20.9 µM) and the MIC [12] was 8 µg/mL (≈ 20.9 µM). It also gave an MIC [13] of 8 µg/mL (≈ 20.9 µM), an MIC [14] of 8 µg/mL (≈ 20.9 µM) and an MIC [15] of 16 µg/mL (≈ 41.7 µM). For the same compound, the MIC [16] was 1 µg/mL (≈ 2.61 µM), the MIC [17] was 16 µg/mL (≈ 41.7 µM) and the MIC [18] was 4 µg/mL (≈ 10.4 µM). For the same compound, the MIC [19] was 2 µg/mL (≈ 5.22 µM), the MIC [20] was 8 µg/mL (≈ 20.9 µM) and the MIC [21] was 8 µg/mL (≈ 20.9 µM). For the same compound, the MIC [22] was 16 µg/mL (≈ 41.7 µM).
Compound `C[C@H]1COc2c(N3CCN(C)CC3)c(F)cc3c(=O)c(C(=O)O)cn1c23` [levofloxacin] has an MIC [1] of 8 µg/mL (≈ 22.1 µM), an MIC [2] of 8 µg/mL (≈ 22.1 µM) and an MIC [3] of 1 µg/mL (≈ 2.77 µM). It also gave an MIC [4] of 16 µg/mL (≈ 44.3 µM), an MIC [5] of 8 µg/mL (≈ 22.1 µM) and an MIC [6] of 2 µg/mL (≈ 5.53 µM). For the same compound, the MIC [7] was 2 µg/mL (≈ 5.53 µM), the MIC [8] was over 32 µg/mL and the MIC [9] was 16 µg/mL (≈ 44.3 µM). The MIC [10] was 8 µg/mL (≈ 22.1 µM), the MIC [11] was 8 µg/mL (≈ 22.1 µM) and the MIC [12] was 16 µg/mL (≈ 44.3 µM). For the same compound, the MIC [13] was 2 µg/mL (≈ 5.53 µM), the MIC [14] was 32 µg/mL (≈ 88.6 µM) and the MIC [15] was 32 µg/mL (≈ 88.6 µM). It also gave an MIC [16] of 1 µg/mL (≈ 2.77 µM), an MIC [17] of 32 µg/mL (≈ 88.6 µM) and an MIC [18] of 4 µg/mL (≈ 11.1 µM). For the same compound, the MIC [19] was 2 µg/mL (≈ 5.53 µM), the MIC [20] was over 32 µg/mL and the MIC [21] was over 32 µg/mL. For the same compound, the MIC [22] was 32 µg/mL (≈ 88.6 µM).
